Assay results taken from ChEMBL document CHEMBL6078627, “Epigallocatechin and epigallocatechin-3-gallate are not inhibitors of tyrosinase” (Bioorg Med Chem Lett, 2024).
Active and inactive are the calls of the source. No cut-off for these calls is given here.

Experiments:
Format in all cases: protein assay
[1] = target: T1, Mushroom tyrosinase (Agaricus bisporus) (UniProt O42713+Q00024+C7FF04+C7FF05); assay: Inhibition of mushroom Tyrosinase using L-DOPA as substrate assessed as change in absorbance at 50 to 100 uM by spectrophotometric analysis; details: dose 50-100 µM
[2] = target: T1, Mushroom tyrosinase (Agaricus bisporus); assay: Inhibition of mushroom Tyrosinase using L-DOPA as substrate assessed as reduction in oxygen consumption
[3] = target: T1, Mushroom tyrosinase (Agaricus bisporus); assay: Inhibition of mushroom Tyrosinase using L-DOPA as substrate assessed as change in absorbance at 50 to 100 uM at 305 nm by spectrophotometric analysis; details: dose 50-100 µM
[4] = target: T1, Mushroom tyrosinase (Agaricus bisporus); assay: Inhibition of mushroom Tyrosinase using L-DOPA as substrate assessed as reduction in oxygen consumption measured after 10 mins

Row | SMILES | inhibition [1] | inhibition [2] | inhibition [3] | inhibition [4] [%]
1 | Oc1cc(O)c2c(c1)O[C@H](c1cc(O)c(O)c(O)c1)[C@H](O)C2 | Active | Active | Active | –
2 | O=C(O)c1cc(O)c(O)c(O)c1 | Active | Active | Active | –
3 | O=C(O[C@@H]1Cc2c(O)cc(O)cc2O[C@@H]1c1cc(O)c(O)c(O)c1)c1cc(O)c(O)c(O)c1 | Active | Active | Active | 10
